Source: patent publication US8741359B2, “Method for testing a substance which is potentially active in the field of lipolysis and its mainly cosmetic use” (BASF Beauty Care Solutions France S.A.S., priority 2001, dated 2014)

Assays:
lipoprotein lipase [1] = biological target: T1, lipoprotein lipase (Bos taurus, UniProt P11151); test: Inhibition of lipoprotein lipase, acellular in vitro model, NEFA determination with NEFA-C kit (colorimetry 550 nm); assay type: biochemical, bovine; details: for Inhibition (%) Pure product diluted to a 1/100th / Inhibition (%) Pure product diluted to a 1/10,000th / Inhibition (%) Pure product: reference inhibitors; for Inhibition (%) Pure product: pure product at initial concentration (protamine sulphate 0.4%, protamine 2.4%, sodium pyrophosphate 6%)
T1 construct: The LPL used in the study model retained does in fact originate from bovine milk; from tissue; host or cells: bovine milk
T1 sequence (P11151 29-478): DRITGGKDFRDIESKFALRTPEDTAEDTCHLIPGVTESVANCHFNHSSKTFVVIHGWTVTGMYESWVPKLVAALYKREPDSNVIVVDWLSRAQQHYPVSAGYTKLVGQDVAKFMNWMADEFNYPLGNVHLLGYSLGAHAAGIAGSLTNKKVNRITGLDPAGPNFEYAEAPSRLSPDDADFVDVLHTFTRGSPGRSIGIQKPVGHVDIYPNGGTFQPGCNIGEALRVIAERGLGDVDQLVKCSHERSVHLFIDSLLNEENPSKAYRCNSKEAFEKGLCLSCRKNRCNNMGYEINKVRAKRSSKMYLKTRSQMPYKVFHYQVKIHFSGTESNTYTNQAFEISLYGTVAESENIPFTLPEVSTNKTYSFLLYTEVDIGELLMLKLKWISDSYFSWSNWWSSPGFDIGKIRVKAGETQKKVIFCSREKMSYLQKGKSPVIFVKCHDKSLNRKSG
Procedure: The study of the inhibition of the lipoprotein lipase is carried out in an acellular in vitro model which is desired to be a most ? intelligent ? reflection possible of the situation encountered in vivo.
Upon completion of this incubation, a determination of the non-esterified fatty acids (NEFA) is effected upon the reaction medium by an enzymatic technique which is possible to be followed by colorimetry at 550 nm (NEFA-C kit).
A control corresponding to the LPL activity in the absence of inhibitor is effected. […] The results are expressed in percentage inhibition with respect to the control.

lipoprotein lipase [2] = biological target: T1, lipoprotein lipase; test: Inhibition of lipoprotein lipase, released oleic acid determined by gas phase chromatography (GPC); assay type: biochemical, bovine; details: for Inhibition Pure product diluted to a 1/100th: diluted 1/100th; for Inhibition Pure product diluted to a 1/10,000th: diluted 1/10,000th; for Inhibition Pure product: pure product at initial concentration (sodium pyrophosphate 6%, protamine sulphate 0.4%)
Procedure: LPL is an enzyme which has a significant affinity for its reaction product. The fatty acids released will in fact aggregate around the enzyme which will as it were be sequestered by the fatty acids and will therefore be no longer accessible to the substrate. […] II—Inhibition of the Lipoprotein Lipase:
The enzyme is incubated for a determined period of time in the presence of its inhibitor while the triolein is incubated in the presence of apoCII so as to mimic the situation encountered in vivo.
The triolein/ApoCII mixture is then incubated in the presence of the medium constituted by the enzyme±inhibitor.
For this, an oleic acid determination technique which enables the oleic acid at the end of the enzymatic reaction to be quantified, was developed.
The oleic acid is extracted from the reaction medium of the enzymatic determination with ethanol, and then injected onto a commercial column from DBJW scientific: reference DB FFAP, 15 m in length, 0.32 mm internal diameter, 0.25 μm thickness in splitless mode. The temperatures of the injector and of the detector are 280° C. The programming in temperature starts at 50° C. for 1 minute and then rises by 40° C./minute up to 200° C. and then by 15° C. par minute up to 250° C. for 3 minutes.

Molecule | Inhibition (%) Pure product diluted to a 1/100th (lipoprotein lipase [1]; diluted 1/100th) | Inhibition (%) Pure product diluted to a 1/10,000th (lipoprotein lipase [1]; diluted 1/10,000th) | Inhibition (%) Pure product (lipoprotein lipase [1]) | Inhibition Pure product diluted to a 1/100th (lipoprotein lipase [2]) | Inhibition Pure product diluted to a 1/10,000th (lipoprotein lipase [2]) | Inhibition Pure product (lipoprotein lipase [2]) | Inhibition Pure product diluted to a 1/100th (lipoprotein lipase [1]; denaturing products, diluted 1/100th) | Inhibition Pure product diluted to a 1/10,000th (lipoprotein lipase [1]; denaturing products, diluted 1/10,000th) | Inhibition Pure product (lipoprotein lipase [1]; denaturing products, pure product)
O=P([O-])([O-])OP(=O)([O-])[O-].[Na+].[Na+].[Na+].[Na+] [Sodium pyrophosphate] | 13% ± 12.5 | 0.4% ± 8.3 | 15% ± 12.6 | 30.4% ± 4.0 | 47.4% ± 10.4 | 35.1% ± 11.1 |  |  | 
O=C(OC[C@H]1O[C@@H](OC(=O)c2cc(O)c(O)c(OC(=O)c3cc(O)c(O)c(O)c3)c2)[C@H](OC(=O)c2cc(O)c(O)c(OC(=O)c3cc(O)c(O)c(O)c3)c2)[C@@H](OC(=O)c2cc(O)c(O)c(OC(=O)c3cc(O)c(O)c(O)c3)c2)[C@@H]1OC(=O)c1cc(O)c(O)c(OC(=O)c2cc(O)c(O)c(O)c2)c1)c1cc(O)c(O)c(OC(=O)c2cc(O)c(O)c(O)c2)c1 [Tannic acid] |  |  |  | 44.8% ± 10.6 | 0% ± 3.8 | 100% ± 1.8 | 11.4% ± 10.39 | 0% ± 9.8 | 98.3% ± 12.4
Protamine | 9.6% ± 5 | 8.5% ± 8.7 | 11.2% ± 6.6 |  |  |  |  |  | 
Protamine sulphate | 2.6% ± 14.4 | 11.8% ± 14.7 | 10.1% ± 7.9 | 5.0% ± 9.6 | 27.7% ± 2.9 | 17.9% ± 17.5 |  |  | 
